Earlier results as cited in patent US9173845B2, “Controlled release pharmaceutical compositions of milnacipran” (priority 2009, dated 2015).

Conditions: immediate release Milnacipran, background

half-life: ~8 h
SMILES: CCN(CC)C(=O)C1(c2ccccc2)CC1CN (stereo not drawn) [Milnacipran, cis-2-amino methyl-N,N-diethyl-1-phenyl cyclopropane carboxamide]
